# Publication PMC2869246 (Antiviral research, 2010)
# Entries after “also recorded” stand apart in the source; their conditions may differ. Like-named read-outs stand apart in the source and are kept apart here.
# Experiments:
# [1] = ref Reddy et al., 2008; cited from earlier work
# HBV [2] = assay: HBV antiviral assay in HepG2.2.15 cells; assay type: cell-based, hepatitis B virus; conditions: for effect of addition of 10uM mevalonate on anti-HBV effect: 10uM mevalonate added
# [3] = Cytotoxicity by neutral red dye uptake in HepG2.2.15 cultures; assay type: cell-based; conditions: human, HepG2.2.15 cells
# HepG2.2.15 = assay: as above; assay type: cell-based; conditions: Table 2; monotherapy; neutral red uptake 24 hours after last treatment
# HBV [4] = conditions: cited from earlier work; for anti-HBV activity: unpublished results
# HBV surface antigen = conditions: Hep3B cell line with integrated S gene coding region; ref Lin et al., 2003; cited from earlier work
# [5] = Hepatitis B virus, HepG2.2.15, Table 2 (separate experiment), monotherapy
# [6] = Table 2 (separate experiment), monotherapy
structure (smiles),measurement,setting,value
"Nc1ncnc2c1ncn2CCOCP(=O)(O)O [ADV, adefovir]",liver/serum ratios,[1],0.38
"Nc1ccn([C@@H]2CS[C@H](CO)O2)c(=O)n1 [LMV, lamivudine]",effect of addition of 10uM mevalonate on anti-HBV effect,HBV [2],did not affect the anti-HBV effectiveness; also recorded: nor did it reduce the anti-HBV effectiveness
same,EC50,HBV [2]; [5],0.048 ± 0.005 µM
same,EC90,HBV [2]; [5],0.146 ± 0.017 µM
same,CC50 at 9 days,[3],2320 ± 102 µM
CC(O)(CCO)CC(=O)O (stereo not drawn) [Mevalonate],EC50,HBV [2]; [6],> 10 µM
same,EC90,HBV [2]; [6],> 10 µM
same,anti-HBV effect,HBV [2]; monotherapy,did not display an anti-HBV effect
same,CC50,HepG2.2.15,> 10 µM
"CCC(C)(C)C(=O)O[C@H]1C[C@@H](C)C=C2C=C[C@H](C)[C@H](CC[C@@H]3C[C@@H](O)CC(=O)O3)[C@H]21 [SIM, simvastatin]",effect of addition of 10uM mevalonate on anti-HBV effect,HBV [2],abolished the anti-HBV effect; also recorded: abolished the anti-HBV effectiveness
same,EC50,HBV [2]; [5],2.8 ± 0.3 µM
same,EC90,HBV [2]; [5],8.1 ± 0.7 µM
same,ED90,"HBV [2]; SIM alone, cell culture",8.6 µM
same,CC50 at 9 days,[3],> 300 µM
CC(C)n1c(/C=C/C(O)CC(O)CC(=O)O)c(-c2ccc(F)cc2)c2ccccc21 (stereo not drawn) [fluvastatin],anti-HBV activity,HBV [4]; ref Korba,unable to make other statins work against HBV
CC[C@H](C)C(=O)O[C@H]1C[C@@H](C)C=C2C=C[C@H](C)[C@H](CC[C@@H]3C[C@@H](O)CC(=O)O3)[C@H]21 [lovastatin],anti-HBV activity (HBV virions in cell culture),"HBV [4]; ref Lin et al., 2003",unable to make other statins work against HBV; also recorded: could not demonstrate reduction of HBV virions
same,in vitro production of surface antigen inhibited,HBV surface antigen,60%
CC[C@H](C)C(=O)O[C@H]1C[C@H](O)C=C2C=C[C@H](C)[C@H](CC[C@@H](O)C[C@@H](O)CC(=O)O)[C@H]21 [pravastatin],anti-HBV activity,HBV [4]; ref Bader,unable to make other statins work against HBV
